# Measured values as given in US20220387397A1, “COMPOUNDS AND COMPOSITIONS FOR TREATING CONDITIONS ASSOCIATED WITH NLRP ACTIVITY” (Novartis AG, priority 2018, published 2022).
# Test system: IL-1β production in PMA-differentiated THP-1 cells
# Experiment: IL-1β production in PMA-differentiated THP-1 cells stimulated with gramicidin (hTHP-1 assay, 2% bovine serum)
# Format: cell-based, human
# Settings: Homo sapiens, THP-1; hTHP-1 assay containing 2% bovine serum; Table 13, by Example #
# Method: The following protocols are suitable for testing the activity of the compounds dislcosed herein. Bioassay 1:
# IL-1β Production in PMA-Differentiated THP-1 Cells Stimulated with Gramicidin.
# Cell culture-THP-1 cells were purchased from the American Type Culture Collection and sub-cultured according to instructions from the supplier. Prior to experiments, cells were cultured in RPMI 1640 containing 10% heat inactivated FBS, penicillin (100 units/ml) and streptomycin ([…]), and maintained in log phase prior to experimental setup. Prior to the experiment THP-1 were treated with PMA (Phorbol 12-myristate 13-acetate) ([…]) for 24 hours. The day of the experiment the media was removed and attaching cells were treated with trypsin for 2 minutes, cells were then collected, washed with PBS (phosphate buffer saline), spin down, resuspended in 2% heat inactivated FBS with RPMI at a concentration of 1×10^6 cells/ml, and 100 ul was plated in a 96 well plate. Cells were incubated with compounds for 1 hours and then stimulated with Gramicidin (5 μM) (Enzo) for 2 hours. Cell free supernatant was collected and the production of […] was evaluated by ELISA. Compounds were dissolved in dimethyl sulfoxide (DMSO) and added to the culture medium to achieve desired concentration (e.g. 100, 30, 10, 3, 1, 0.3 or 0.1 μM). A vehicle only control was run concurrently with each experiment. Final DMSO concentration was 1%.
# THP-1 cells were purchased from the American Type Culture Collection and sub-cultured according to instructions from the supplier. Prior to experiments, cells were cultured in complete RPMI 1640 (containing 10% heat inactivated FBS, penicillin (100 units/ml) and streptomycin ([…])), and maintained in log phase prior to experimental setup. Prior to the experiment THP-1 were treated with PMA (Phorbol 12-myristate 13-acetate) (20 ng/ml) for 16-18 hours. On the day of the experiment the media was removed and adherent cells were detached with trypsin for 5 minutes. Cells were then harvested, washed with complete RPMI 1640, spun down, resuspended in RPMI 1640 (containing 2% heat inactivated FBS, penicillin (100 units/ml) and streptomycin ([…]). The cells were plated in a 384-well plate at a density of 50,000 cells/well (final assay volume […]). Compounds were dissolved in dimethyl sulfoxide (DMSO) and added to the culture medium to achieve desired concentration (e.g. 100, 33, 11, 3.7, 1.2, 0.41, 0.14, 0.046, 0.015, 0.0051, […]). Cells were incubated with compounds for 1 hour and then stimulated with gramicidin (5 μM) (Enzo) for 2 hours. Cell free supernatant was collected and the production of IL-1 was evaluated by HTRF (cisbio). A vehicle only control was run concurrently with each experiment. Final DMSO concentration was 0.38%.
# Compounds tested with protocols 1 and 2 provided IC50 values that are within the variability of the assay.
# Tables 13 and 14 show the biological activity of compounds in hTHP-1 assay containing 2% bovine serum: <1 μM=“++++”; ≥1 and <5 μM=“+++”; ≥5 and <15 μM=“++”; ≥15 and <60 μM=“+”.
row,Compound,IC50 [µM]
1,"CC(C)(O)c1csc(S(=O)(=O)NC(=O)Cc2c3c(cc4c2CCC4)CCC3)c1 [Example 7, 2-(1,2,3,5,6,7-hexahydros-indacen-4-yl)-N-(4-(2-hydroxypropan-2-yl)thiophen-2-ylsulfonyl)acetamide]",5 to 15
2,"CCc1cc(C(C)C)c(CC(=O)NS(=O)(=O)c2ccc(CN(C)C)cc2)c(C(C)C)c1 [Example 97, N-((4-((dimethylamino)methyl)phenyl)sulfonyl)-2-(4-ethyl-2,6-diisopropylphenyl)acetamide]",5 to 15

# Same assay, conditions: Homo sapiens, THP-1; hTHP-1 assay containing 2% bovine serum; Table 14, by Final Target Number
row,Compound,IC50 [µM]
1,CC(C)c1cc(C#N)c(F)c(C(C)C)c1CC(=O)NS(=O)(=O)c1cnc(C(C)(O)CO)s1 (centres unmarked) [Compound 401],1 to 5
2,CNC(=O)c1ccc(S(=O)(=O)NC(=O)Cc2c(C(C)C)cc(C#N)c(F)c2C(C)C)cc1O [Compound 402],15 to 60
3,CC(C)c1cc(C#N)cc(C(C)C)c1CC(=O)NS(=O)(=O)c1cnc(C(C)(C)O)nc1 [Compound 409],5 to 15
4,CC(C)c1cc(C#N)c(F)c(C(C)C)c1CC(=O)NS(=O)(=O)c1cnc(C(C)(C)O)nc1 [Compound 406],5 to 15
5,CC(C)c1cc(C#N)c(F)c(C(C)C)c1CC(=O)NS(=O)(=O)c1cc(C(C)(C)O)no1 [Compound 416],< 1
6,CC(C)c1cc(C#N)c(F)c(C(C)C)c1CC(=O)NS(=O)(=O)c1cnc(C(C)(O)CO[C@@H]2O[C@H](CO)[C@@H](O)[C@H](O)[C@H]2O)s1 (some centres unmarked) [Compound 405],5 to 15
7,CNS(=O)(=O)c1ccc(S(=O)(=O)NC(=O)Cc2c(C(C)C)cc(C#N)c(F)c2C(C)C)c(Cl)c1 [Compound 404],< 1
8,CC(C)c1cc(C#N)c(F)c(C(C)C)c1CC(=O)NS(=O)(=O)c1cccc(-n2cc(CNC(=O)OC(C)(C)C)nn2)c1 [Compound 407],15 to 60

# Same assay, conditions: Homo sapiens, THP-1; hTHP-1 assay containing 2% bovine serum; Table 14, given as a numeric bound
row,Compound,IC50 [µM]
1,CC(C)c1cc(C2(C(F)(F)F)N=N2)cc(C(C)C)c1CC(=O)NS(=O)(=O)c1ccc(CN(C)C(=O)CCCN(C)C(=O)CCOCCOCCOCCOCCNC(=O)CCCC[C@H]2SC[C@@H]3NC(=O)N[C@@H]32)cc1 [Compound 412],> 30
2,CC(C)c1cc(C#N)c(F)c(C(C)C)c1CC(=O)NS(=O)(=O)c1cccc(NC(=O)CCc2cn(CCNC(=O)OC(C)(C)C)nn2)c1 [Compound 408],> 30
3,CC(C)c1cc(F)cc(C(C)C)c1CC(=O)NS(=O)(=O)c1ccc([C@H](C)N(C)C(=O)CCc2cn(CCOCCOCCOCCNC(=O)CCCC[C@H]3SC[C@@H]4NC(=O)N[C@@H]43)nn2)cc1 [Compound 411],> 30
4,CC(C)c1cc(F)cc(C(C)C)c1CC(=O)NS(=O)(=O)c1ccc(C(C)N(C)C(=O)CCc2cn(CCOCCOCCOCCNC(=O)CCCC[C@@H]3SC[C@@H]4NC(=O)N[C@@H]43)nn2)cc1 (some centres unmarked) [Compound 415],> 30
5,CC(C)c1cc(F)cc(C(C)C)c1CC(=O)NS(=O)(=O)c1ccc([C@@H](C)N(C)C(=O)CCc2cn(CCOCCOCCOCCNC(=O)CCCC[C@@H]3SC[C@@H]4NC(=O)N[C@@H]43)nn2)cc1 [Compound 410],> 30

# Same assay, conditions: hTHP-1 assay containing 2% bovine serum; Table 13, by Example #
row,Compound,IC50 [µM]
1,CC(=O)c1ccc(F)c(S(=O)(=O)NC(=O)Cc2c(C(C)C)cc(F)cc2C(C)C)c1 [Example 55],1 to 5
2,"N-(4-pentafluorophenylsulfonyl)-2-(4-fluoro-2,6-diisopropylphenyl)acetamide [Example 39]",15 to 60
